Measurements: patent publication US5389663A, “1-(1h-1,2,4-triazole-yl)-2-propanol compounds” (Takeda Chemical Industries, Ltd., priority 1991, dated 1995)

tested on: Candida albicans; assay: Protective effect against Candida albicans infection in mice; assay type: in vivo, Crj:CDF1 mice; details: 168 h, po, minimum lethal dose of Candida albicans iv, drug once immediately after infection, survival 7 days after infection
Description: Test Method: Five-week old Crj:CDF1 mice were inoculated with the minimum lethal dose of Candida albicans intravenously. The test drug was given once immediately after infection. The effectiveness of the drug was expressed in ED50 values calculated by the Reed and Muench method from the survival rate 7 days after infection.

SMILES	ED50
CC(=C(Cn1cncn1)c1ccc(F)cc1F)S(=O)(=O)N(C)C (single isomer, unassigned) [Compound 35, N,N-dimethyl-3-(2,4-difluorophenyl)-4-(1H-1,2,4-triazol-1-yl)-2-butene-2-sulfonamide]	20 mg/kg
CCCCNS(=O)(=O)[C@H](C)[C@](O)(Cn1cncn1)c1ccc(F)cc1F [Compound 4, N-butyl-[(2R,3R)-3-(2,4-difluorophenyl)-3-hydroxy-4-(1H-1,2,4-triazol-1-yl)-2-butane]sulfonamide]	7.07 mg/kg

tested on: Candida albicans IFO 0583; assay: Paper disc agar diffusion, growth inhibition zone, Candida albicans IFO 0583; assay type: cell-based; details: Candida albicans, IFO0583, 48 h, Table 5; Medium A, 28° C., two-day culture, 1000 μ/ml, 8 mm disc; read-out: Diameter of growth-inhibition zone
Protocol: Evaluation of the antifungal activities of the compound of formula (I) was conducted by the following method: a sheet of filter paper disc (manufactured by Toyo Seisakusho, 8 mm in diameter) soaked in a […] solution of a compound of formula (I) in methanol was placed on an agar plate containing various fungi, which was incubated at 28° C. for two days, and the diameter of the growth inhibition zone around the filter paper disc was measured. The following culture media were used: A: yeast nitrogen base agar medium (pH 7.0) B: Sabouraud agar medium
cpd. No. (Medium A, 28° C., two-day culture)

SMILES	zone of inhibition at 1000 µg/mL
CCCCNS(=O)(=O)[C@H](C)[C@](O)(Cn1cncn1)c1ccc(F)cc1F [Compound 4, N-butyl-[(2R,3R)-3-(2,4-difluorophenyl)-3-hydroxy-4-(1H-1,2,4-triazol-1-yl)-2-butane]sulfonamide]	40 mm
C[C@H]([C@](O)(Cn1cncn1)c1ccc(F)cc1F)S(=O)(=O)N1CCCC1 [Compound 28, 1-[(2R,3R)-3-(2,4-difluorophenyl)-3-hydroxy-4-(1H-1,2,4-triazol-1-yl)-2-butylsulfonyl]pyrrolidine]	50 mm
C[C@H]([C@](O)(Cn1cncn1)c1ccc(F)cc1F)S(=O)(=O)NCc1nncn1C [Compound 41, N-(4-methyl-4H-1,2,4-triazol-3-ylmethyl)-[(2R,3R)-3-(2,4-difluorophenyl)-3-hydroxy-4-(1H-1,2,4-triazol-1-yl)-2-butane]sulfonamide]	23 mm
CCC(C)n1ncn(-c2ccc(N3CCN(S(=O)(=O)[C@H](C)[C@](O)(Cn4cncn4)c4ccc(F)cc4F)CC3)cc2)c1=O (stereo partly drawn) [Compound 42, 1-[4-[2-(2-butyl)-2,3-dihydro-3-oxo-4H-1,2,4-triazol-4-yl]phenyl]-4-[(2R,3R)-3-(2,4-difluorophenyl)-3-hydroxy-4-(1H-1,2,4-triazol-1-yl)-2-butanesulfonyl]piperazine]	40 mm
CCC(C)n1ncn(-c2ccc(N3C=CN(S(=O)(=O)[C@H](C)[C@](O)(Cn4cncn4)c4ccc(F)cc4F)CC3)cc2)c1=O (stereo partly drawn) [Compound 43, 1-[4-[2-(2-butyl)-2,3-dihydro-3-oxo-4H-1,2,4-triazol-4-yl]phenyl]-4-[(2R,3R)-3-(2,4-difluorophenyl)-3-hydroxy-4-(1H-1,2,4-triazol-1-yl)-2-butanesulfonyl]-1,2,3,4-tetrahydropyrazine]	35 mm
C[C@H]([C@](O)(Cn1cncn1)c1ccc(F)cc1F)S(=O)(=O)N1CCN(c2ccc(-n3cnn(CC(F)(F)F)c3=O)cc2)CC1 [Compound 44, 1-[4-[2-(2,2,2-trifluoroethyl)-2,3-dihydro-3-oxo-4H-1,2,4-triazol-4-yl]phenyl]-4-[(2R,3R)-3-(2,4-difluorophenyl)-3-hydroxy-4-(1H-1,2,4-triazol-1-yl)-2-butanesulfonyl]piperazine]	33 mm
C[C@H]([C@](O)(Cn1cncn1)c1ccc(F)cc1F)S(=O)(=O)N1CCN(c2ncccn2)CC1 [Compound 45, 1-[(2R,3R)-3-(2,4-difluorophenyl)-3-hydroxy-4-(1H-1,2,4-triazol-1-yl)-2-butanesulfonyl]-4-(2-pyrimidinyl) piperazine]	50 mm
C[C@H]([C@](O)(Cn1cncn1)c1ccc(F)cc1F)S(=O)(=O)N(C)Cc1ccccc1 [Compound 47, N-benzyl-N-methyl-[(2R,3R)-3-(2,4-difluorophenyl)-3-hydroxy-4-(1H-1,2,4-triazol-1-yl)-2-butane]sulfonamide]	45 mm
C[C@@H](NS(=O)(=O)c1ccc(F)cc1F)[C@](O)(Cn1cncn1)c1ccc(F)cc1F [Compound 50]	45 mm
C[C@@H](NS(=O)(=O)c1ccc(N)cc1)[C@](O)(Cn1cncn1)c1ccc(F)cc1F [Compound 52]	35 mm
C[C@@H](NS(=O)(=O)CCCCl)[C@](O)(Cn1cncn1)c1ccc(F)cc1F [Compound 56]	30 mm
C[C@@H](N1CCCS1(=O)=O)[C@](O)(Cn1cncn1)c1ccc(F)cc1F [Compound 57]	35 mm
COc1ccc(CNS(=O)(=O)[C@H](C)[C@](O)(Cn2cncn2)c2ccc(F)cc2F)cc1OC [Compound 60, N-(3,4-dimethoxybenzyl)-[(2R,3R)-3-(2,4-difluorophenyl)-3-hydroxy-4-(1H-1,2,4-triazol-1-yl)-2-butane]sulfonamide]	35 mm
CCCCCCCCCCCCN(C)S(=O)(=O)[C@H](C)[C@](O)(Cn1cncn1)c1ccc(F)cc1F [Compound 61, N-dodecyl-N-methyl-[(2R,3R)-3-(2,4-difluorophenyl)-3-hydroxy-4-(1H-1,2,4-triazol-1-yl)-2-butane]sulfonamide]	18 mm
C#CCN(C)S(=O)(=O)[C@H](C)[C@](O)(Cn1cncn1)c1ccc(F)cc1F [Compound 62, N-methyl-N-(2-propinyl)-[(2R,3R)-3-(2,4-difluorophenyl)-3-hydroxy-4-(1H-1,2,4-triazol-1-yl)-2-butane]sulfonamide]	45 mm
C[C@H]([C@](O)(Cn1cncn1)c1ccc(F)cc1F)S(=O)(=O)N(C)CC#CC(C)(C)C [Compound 63, N-(4,4-dimethyl-2-pentynyl)-N-methyl-[(2R,3R)-3-(2,4-difluorophenyl)-3-hydroxy-4-(1H-1,2,4-triazol-1-yl)-2-butane]sulfonamide]	40 mm
C[C@H]([C@](O)(Cn1cncn1)c1ccc(F)cc1F)S(=O)(=O)N(C)Cc1ccc(C(F)(F)F)cc1 [Compound 66, N-methyl-N-(4-trifluoromethylbenzyl)-[(2R,3R)-3-(2,4-difluorophenyl)-3-hydroxy-4-(1H-1,2,4-triazol-1-yl)-2-butane]sulfonamide]	42 mm
C[C@H]([C@](O)(Cn1cncn1)c1ccc(F)cc1F)S(=O)(=O)N(C)Cc1ccc(C(F)(F)F)cc1F [Compound 67, N-(2-fluoro-4-trifluoromethylbenzyl)-N-methyl-[(2R,3R)-3-(2,4-difluorophenyl)-3-hydroxy-4-(1H-1,2,4-triazol-1-yl)-2-butane]sulfonamide]	42 mm

SMILES	zone of inhibition at 1000 µg/mL
C[C@H]([C@](O)(Cn1cncn1)c1ccc(F)cc1F)S(=O)(=O)N(C)C/C=C/C#CC(C)(C)C [Compound 68, N-[(E)-6,6-dimethyl-2-hepten-4-ynyl]-N-methyl-[(2R,3R)-3-(2,4-difluorophenyl)-3-hydroxy-4-(1H-1,2,4-triazol-1-yl)-2-butane]sulfonamide]	42 mm
C[C@H]([C@](O)(Cn1cncn1)c1ccc(F)cc1F)S(=O)(=O)N(C)C/C=C\C#CC(C)(C)C [Compound 69]	42 mm
COc1ccc(N2CCN(S(=O)(=O)[C@H](C)[C@](O)(Cn3cncn3)c3ccc(F)cc3F)CC2)cc1 [Compound 72, 4-[(2R,3R)-3-(2,4-difluorophenyl)-3-hydroxy-4-(1H-1,2,4-triazol-1-yl)-2-butanesulfonyl]-1-(4-methoxyphenyl)piperazine]	48 mm
C[C@H]([C@](O)(Cn1cncn1)c1ccc(F)cc1F)S(=O)(=O)N1CCN(c2ccccn2)CC1 [Compound 74, 4-[(2R,3R)-3-(2,4-difluorophenyl)-3-hydroxy-4-(1H-1,2,4-triazol-1-yl)-2-butanesulfonyl]-1-(2-pyridyl) piperazine]	44 mm
C[C@H]([C@](O)(Cn1cncn1)c1ccc(F)cc1F)S(=O)(=O)N(C)c1ncccn1 [Compound 77, N-methyl-N-(2-pyrimidinyl)-[(2R,3R)-3-(2,4-difluorophenyl)-3-hydroxy-4-(1H-1,2,4-triazol-1-yl)-2-butane]sulfonamide]	40 mm
C[C@H]([C@](O)(Cn1cncn1)c1ccc(F)cc1F)S(=O)(=O)N(C)Cc1ccccn1 [Compound 79]	30 mm
Cc1ncsc1CCN(C)S(=O)(=O)[C@H](C)[C@](O)(Cn1cncn1)c1ccc(F)cc1F [Compound 80]	40 mm
Cc1nnc(N(C)S(=O)(=O)[C@H](C)[C@](O)(Cn2cncn2)c2ccc(F)cc2F)s1 [Compound 81]	40 mm
CSc1nnc(CN(C)S(=O)(=O)[C@H](C)[C@](O)(Cn2cncn2)c2ccc(F)cc2F)s1 [Compound 82]	40 mm
CSc1nnc(CCN(C)S(=O)(=O)[C@H](C)[C@](O)(Cn2cncn2)c2ccc(F)cc2F)s1 [Compound 83]	40 mm
C[C@H]([C@](O)(Cn1cncn1)c1ccc(F)cc1F)S(=O)(=O)N(C)CCc1nnc(S(C)(=O)=O)s1 [Compound 84]	23 mm
C[C@H]([C@](O)(Cn1ccnc1)c1ccc(F)cc1F)S(=O)(=O)N(C)C [Compound 85, N,N-dimethyl-[(2R,3R)-3-(2,4-difluorophenyl)-3-hydroxy-4-(1-imidazolyl)-2-butane]sulfonamide]	45 mm
C[C@@H](NS(=O)(=O)c1cccs1)[C@](O)(Cn1cncn1)c1ccc(F)cc1F [Compound 87]	38 mm
C[C@@H](N(C)S(=O)(=O)c1nccn1C)[C@](O)(Cn1cncn1)c1ccc(F)cc1F [Compound 88]	46 mm
CC(=O)Nc1nc(C)c(S(=O)(=O)N(C)[C@H](C)[C@](O)(Cn2cncn2)c2ccc(F)cc2F)s1 [Compound 89]	35 mm
C[C@@H](N(C)S(=O)(=O)c1cccs1)[C@](O)(Cn1cncn1)c1ccc(F)cc1F [Compound 90]	40 mm
C[C@H]([C@](O)(Cn1cncn1)c1ccc(F)cc1F)S(=O)(=O)N1CCN(c2ncncc2F)CC1 [Compound 92]	53 mm

same assay, conditions: Table 5; Medium A, 28° C., two-day culture, 1000 μ/ml, 8 mm disc

SMILES	Diameter of growth-inhibition zone
CC(=C(Cn1cncn1)c1ccc(F)cc1F)S(=O)(=O)N(C)C (single isomer, unassigned) [Compound 35, N,N-dimethyl-3-(2,4-difluorophenyl)-4-(1H-1,2,4-triazol-1-yl)-2-butene-2-sulfonamide]	30 mm
